Laboratory results published in a melting point compilation (Tetko et al.; mined from patent text by program, amines drawn as free bases though some values may be those of a salt).

Row | melting point | Structure (SMILES)
1 | 91.5 to 93.5 °C | O=C(Nc1ccc(Oc2cccc(Cl)c2)c(Cl)c1)c1ccccn1
2 | 96 °C | O=C1c2ccc(-c3cccc(C(F)(F)F)c3)cc2CC1Br (stereo unspecified)
3 | 91 to 104 °C | COc1cc(N2CCC(N3CCCN(CCO)CC3)CC2)ccc1Nc1ncc2ccc(-c3ccccc3N(C)S(C)(=O)=O)n2n1
4 | 62 to 64 °C | CCCCCCCCCCCCSC(C)(C)C(=O)O
5 | 128 to 129 °C | CC(C)Cc1cc(NC(=O)c2nccnc2Cl)ccc1C(C(F)(F)F)C(F)(F)F
6 | 97 to 99 °C | O=C1c2ccccc2C(=O)N1C(Sc1ccccc1)c1ccccc1 (stereo unspecified)
7 | 180 to 181 °C | CON(C)C(=O)c1cc2cccc(NS(=O)(=O)c3cccs3)c2[nH]1
8 | 136 to 138 °C | Oc1ccc2cc(I)ccc2c1
9 | 104 to 106 °C | COC(=O)CN1CC(OC)=CC1=O
10 | 159 to 162 °C | COc1ccc(N2C(=O)[C@@H](NC(=O)Cc3ccccc3)[C@H]2C=CC(=O)[C@@H]2CCCO2)cc1
11 | 230 to 231 °C | Oc1ccc(-c2cn(-c3ccncc3)c(-c3ccc(F)cc3)n2)cc1
12 | 93 to 94 °C | COc1ccc(-c2noc3ccsc23)cc1
13 | 62 to 64 °C | COc1cccc2c(=O)c(-c3cccc(C(F)(F)F)c3F)nn(CCCNS(C)(=O)=O)c12
14 | 149 to 150 °C | O=[N+]([O-])c1ccc(C2OCCc3cc4c(cc32)OCO4)cc1 (stereo unspecified)
15 | 294 to 296 °C | Nc1cc(-c2ccncc2)cc2nc(-c3ccco3)nn12
16 | 134 to 136 °C | N#Cc1ccc(OCc2ccsc2)cc1OC(C(=O)O)c1cccc(Cl)c1 (racemic)
17 | 83 to 84 °C | Clc1ccc(C=NC(c2ccccc2)c2ccccc2)cc1
18 | 196 to 198 °C | O=C(CCSCCSCCSCCC(=O)Nc1ccc(Nc2ccccc2)cc1)Nc1ccc(Nc2ccccc2)cc1
19 | 251 °C | Cc1nc(Cl)c2c(c1O)COC2(C)C
20 | 124 to 126 °C | CCC(OCC(F)(F)F)c1ccc(Cl)c2nc3n(c12)CCCN3c1ccc(OC)nc1C (stereo unspecified)
21 | 111 to 112 °C | COC(=O)c1cc(C)c(C(OC(=O)C(Cc2ccccc2)NS(=O)(=O)c2ccc(C)cc2)c2cc(-n3ccnc3)ccc2C)c(C)c1 (stereo unspecified)
22 | 145 to 147 °C | CC(C)(N)CCn1c(=O)oc2ccccc21
23 | 188 to 191 °C | CCOC(=O)CCN(c1ccccc1)S(=O)(=O)c1ccc2c(c1)nc(CNc1ccc(C#N)cc1)n2C
24 | 111 to 112 °C | CCCOc1ccc(SCCSc2ccc(OCCC)cc2)cc1
25 | 146 to 148 °C | CNS(=O)(=O)c1ccc(C2=NC(C)(C)Cc3cc(OC)c4c(c32)CC(C)(C)O4)cc1

Row | melting point | Structure (SMILES)
26 | 101 to 102 °C | Cc1cc(C)c(C(CO)c2ccc(C(C)C)cc2)c(O)c1C (stereo unspecified)
27 | 34 to 35 °C | Cc1ccc2c(c1)C(=O)c1ccccc1CC2
28 | 142 to 144 °C | O=C(NCCCc1ccncc1)N(CCC12CC3CC(CC(C3)C1)C2)Cc1cccs1
29 | 188 to 189 °C | CCCC(=O)NC1=CC(=O)c2ccc(C)nc2C1=O
30 | 210 to 211 °C | CC1(C)C(=O)N(c2ccnc(N)c2)c2cccnc21
31 | 138 °C | Cc1ccccc1NC(=O)C1(C)CCCCC1
32 | 213 to 216 °C | COc1cc[nH]c1C=C1C(=O)Nc2cccc(C#CC(O)c3sccc3OC)c21 (racemic)
33 | 120 to 125 °C | COc1ccccc1CN[C@H]1CCCN(CCCc2ccccc2)[C@H]1c1ccccc1 (relative stereo)
34 | 115 to 116 °C | CNC(=O)C(=NOC)c1ccccc1COc1ncc(Br)cc1C
35 | 64 to 64.5 °C | CCCCCCCCCCCCCCCCC[C@@H](O)CC(=O)OC
36 | 58 to 59 °C | COc1cccc2c(CCO)c(C)oc12
37 | 144 to 145 °C | CC(=O)OC1CCC2(C)C(=CCC3C2CC(c2cccnc2)C2(C)C=CCC32)C1 (stereo unspecified)
38 | 104 to 105 °C | FC(F)(F)c1ccc2nnc(-c3c(Cl)cccc3Cl)n2c1
39 | 64 to 65 °C | CCCCC1CCCC2=C1C(=O)c1ccccc1C2=O (stereo unspecified)
40 | 169 to 170 °C | O=C(NCCO)c1cccc(-c2ccc3cnn(-c4ccc(Cl)cc4Cl)c3n2)c1
41 | 138 to 139 °C | CCCCc1ccc(-c2nc3ccccc3[nH]2)nc1
42 | 72 to 75 °C | COC1=C(OC)C(=O)C2=C(CC(CCCCOc3ccc(CO)cc3)C2)C1=O
43 | 116 to 121 °C | O=C(O)COC(=O)C=Cc1ccccc1
44 | 77 to 80 °C | CC(C)(NC(=O)Oc1ccc([N+](=O)[O-])cc1)C(F)(F)F
45 | 195 to 197 °C | COc1ccc(/C=C/C(=O)/C=C/c2ccc(OC)c(O)c2)cc1O
46 | 262 to 265 °C | CCc1ccc(Nc2ncc(Cc3ccc(O)nc3)c3ncccc23)cc1Br
47 | 110 to 112 °C | CC1Cc2cc3c(cc2C(c2ccc([N+](=O)[O-])cc2)=NN1C(=O)CCCN)OCO3 (stereo unspecified)
48 | 107 °C | CCOC(=O)Oc1cc(OC)cc(OC)c1C(=O)C=Cc1ccc(OC)cc1
49 | 178 to 180 °C | O=C(Nc1ccccc1)Nc1cccnc1Cl
50 | 138 to 139 °C | COc1cc(CN(O)C(N)=O)ccc1OCc1nc(-c2ccccc2)oc1C

Row | melting point | Structure (SMILES)
51 | 148 to 150 °C | CS(=O)(=O)NC(c1ccccc1)c1ccccc1
52 | 182 to 184 °C | C=C(c1ccc(-c2cc[nH]n2)cc1)C(O)(Cn1cncn1)c1ccc(F)cc1F (stereo unspecified)
53 | 105 to 110 °C | CCC(=O)c1ccn(S(=O)(=O)c2ccccc2)c1C
54 | 90 to 92 °C | Oc1ccc(Oc2ncc(Cl)cc2F)cc1
55 | 159 to 162 °C | O=C(O)c1cn(C2CC2)c2c(C(F)(F)F)c(F)c(F)cc2c1=O
56 | 255 to 257 °C | CCN(CCCCN)c1ccc2c(=O)[nH][nH]c(=O)c2c1
57 | 168 °C | O=Cc1cnc(-c2ccc(F)cc2)nc1
58 | 223 to 224 °C | O=C(O)COc1cc2onc(-c3ccccc3F)c2cc1Br
59 | 139 to 141 °C | Cc1cc(SCc2sc(-c3ccc(C(F)(F)F)cc3)nc2C)ccc1OCC(=O)O
60 | 191 to 195 °C | C=CCOc1nc2ccccc2c2ncc(C(=O)OCC)c(=O)n12
61 | 98 to 101 °C | CC(=O)OC1(C)CC(=O)OC(CCc2ccc(OCc3ccccc3)cc2)C1 (stereo unspecified)
62 | 118 to 119 °C | CC(C)CC(C(=O)O)c1cc(Cl)c(-c2ccc(Cl)c(Cl)c2)c(OCC2CC2)c1 (stereo unspecified)
63 | 174 to 176 °C | COc1ccc(-c2nc3cnccc3[nH]2)c(OCCCCl)c1
64 | 161 °C | Nc1ccc(NC2CCCCCCC2)c([N+](=O)[O-])c1
65 | 268 to 270 °C | COc1cc(N)c(Cl)cc1C(=O)NC1CCN(CC2CCN(C(C)C(C)=O)CC2)CC1 (stereo unspecified)
66 | 139 to 163 °C | O=S1(=O)N=C(NCCCOc2cccc(CN3CCCCC3)c2)c2ccc(F)cc21
67 | 71 to 73 °C | CCCCCCCCCCCCc1ccc(NC(C)=O)c([N+](=O)[O-])c1
68 | 135 to 138 °C | N#Cc1ccc(C(O)c2occc(=O)c2OCc2ccccc2)cc1 (stereo unspecified)
69 | 160 °C | COC(=O)N=C(NC(=O)OC)Nn1cccc1C(=O)OC
70 | 138 to 140 °C | N#Cc1cc2c(s1)-c1ccccc1OC2c1ccccc1 (stereo unspecified)
71 | 102 to 104 °C | CC(C)(C#N)c1cc(CCCn2cncn2)cc(C(C)(C)C#N)c1
72 | 100 to 101 °C | C/C(=C\CC1OC(=O)NC1=O)c1cccc(OCCc2nc(-c3ccccc3)oc2C)c1 (stereo unspecified)
73 | 190 to 192 °C | Cc1ccc(-c2c(-c3ccc(S(C)(=O)=O)cc3)cnn(-c3ccc(F)c(F)c3)c2=O)cc1
74 | 59 to 60 °C | CN1Cc2ccccc2N(C)S1(=O)=O
75 | 203 to 204 °C | CCC1CC(=O)Nc2c1cnn2CC (stereo unspecified)

Row | melting point | Structure (SMILES)
76 | 184 to 185 °C | O=C(Nc1c(C(O)(C(F)(F)F)C(F)(F)F)ccc2ccccc12)c1cccc(Br)c1
77 | 191 to 192 °C | CC(=O)NC(=Cc1cccnc1)C(=O)O
78 | 150 to 151 °C | CCCNCCC1Cc2ccc(-c3ccc(=O)[nH]n3)cc2C1 (stereo unspecified)
79 | 216 to 217 °C | COc1c(C(=O)O)n(C)c(=O)c2ccc(Cl)cc12
80 | 148 to 150 °C | Cn1ccnc1Sc1ccc(Nc2c(C#N)cnc3cc(-c4ccc(CN5CCOCC5)cc4)ccc23)cc1Cl
81 | 193 to 194 °C | COC(=O)c1cccc(NC(=S)Nc2cc(NC(=O)Nc3ccc(Cl)c(Cl)c3)ccc2OC)c1
82 | 125 to 126 °C | CCc1nc(/C=C/c2cn(-c3ccccc3)nc2OCc2ccc(OCc3nc(/C=C/C(=O)O)oc3C)c(OC)c2)cs1
83 | 132 to 135 °C | O=C(O)CCC(=O)N1C2CCC(C2)C1C(=O)O (stereo unspecified)
84 | 112 °C | CCCOc1nc(=O)n(C(=O)NC)s1
85 | 179 to 180 °C | CNC(=O)C(c1ccc(F)cc1)c1ccc(F)cc1
86 | 73 to 76 °C | COc1cc(C=CC(=O)CCCCCBr)cc(OC)c1
87 | 112 to 114 °C | CNC(=O)c1ncn(C(OC)c2ccc(Cl)c(Cl)c2)c1C(=O)NC (single isomer, unassigned; (+))
88 | 232 to 234 °C | O=C(NC(c1ccccc1)c1ccccc1)N1CCC(c2ccccc2)(c2ccccc2)CC1
89 | 165 to 169 °C | O[C@@H]1C=C[C@H](n2cnc3c(NCC(c4ccccc4)c4ccccc4)ncnc32)C1 (racemic)
90 | 170 to 175 °C | O=C(O)CP(=O)(O)C(CCCc1ccccc1)NC(=O)c1ccccc1 (stereo unspecified)
91 | 109 to 114 °C | COc1c(/C=C/c2cc(/C=C/c3ccc4cc[nH]c4c3)n[nH]2)cccc1OCc1ccccn1
92 | 112 to 114 °C | CC(C)C(=O)NC1=NC(=CCC(=O)Nc2ccc(Cl)cc2)CS1
93 | 124 to 127 °C | COc1ccc(-c2nc(CC(N)=O)sc2-c2ccc(OC)cc2)cc1
94 | 72 to 73 °C | FC(F)(F)c1ccc(Oc2ccc3nnsc3c2)c(Cl)c1
95 | 106 to 108 °C | Cc1csc(C(=O)CCc2ccccc2)c1OCCN(C)C
96 | 171 to 172 °C | CC1(C)Oc2ccc(C#N)cc2[C@@H](NC=O)[C@@H]1OC=O (relative stereo)
97 | 87 to 88 °C | Cc1ccc(COc2cccc(/C=C/c3ccc(CN4CCCCC4)cc3)c2)cc1
98 | 134 to 137 °C | COc1cc(C(=O)NS(=O)(=O)c2ccccc2Cl)ccc1Cn1cc(CCC(=O)N(C)C)c2ccc(CCC(=O)N(C)C)cc21

Row | Structure (SMILES) | melting point
99 | CC12CC(c3ccc(OS(=O)(=O)C(F)(F)F)cc3)C3C4CCC5(CC4=CCC3C1CCC2=O)OCCO5 (stereo unspecified) | 208 to 210 °C
100 | OC1(c2cncnc2)CN2CCC1CC2 (stereo unspecified) | 126 to 127 °C
101 | Clc1ccc(N2CCN(Cc3nc4ccccc4[nH]3)CC2)cc1 | 212 to 213 °C
